{"source": "a melting point compilation (Tetko et al.; mined from patent text by program, amines drawn as free bases though some values may be those of a salt)", "data": [{"units": {"melting point": "°C"}, "values": [{"smiles": "CCc1nc(Cl)c(C=O)n1Cc1ccc2oc(-c3ccccc3NC(=O)OC(C)(C)C)c(Br)c2c1", "melting point": "65 to 66"}, {"smiles": "O=C(O)c1cc(Br)c2cccnc2c1O", "melting point": "244 to 246"}, {"smiles": "Cc1nc(NC(=O)C2=C(O)c3ccc4ccccc4c3S(=O)(=O)N2C)sc1C", "melting point": "264 to 265"}, {"smiles": "COc1ccc(C2(O)c3cc(NC(=O)CC(C)(C)C)c(C)c(C)c3OC2(C)C)cc1", "note": "(stereo unspecified)", "melting point": "110 to 111"}, {"smiles": "O=c1c2c(c1=O)Nc1c(Cl)cc(C(F)(F)F)cc1N2", "melting point": "335 to 337"}, {"smiles": "Cc1ccc(NC(=O)C=Cc2ccccc2)cc1NC(=O)C=Cc1ccccc1", "melting point": "217 to 219"}, {"smiles": "COC(=O)c1cc(-c2nnn(C)n2)c(C(=O)OC)s1", "melting point": "121 to 122"}, {"smiles": "NCC1CCC(CNc2ncc3ncnc(Nc4ccc(F)c(Cl)c4)c3n2)CC1", "note": "(stereo unspecified)", "melting point": "155 to 160"}, {"smiles": "O=C(c1ccco1)n1sc2ccccc2c1=O", "melting point": "157 to 161"}, {"smiles": "CC(C)(C)OC(=O)N[C@H](Cc1ccccc1)C(=O)N1CCC[C@H]1C(=O)NCc1ccc(C#N)nc1", "melting point": "167 to 170"}, {"smiles": "Cc1csc2nc(N3CCC(C(=O)O)CC3)nc(NCc3ccc(F)cc3)c12", "melting point": 279}, {"smiles": "Cc1c(OCc2ccccc2)c(=O)ccn1CCCCCC(=O)O", "melting point": "145 to 147"}, {"smiles": "Nc1ncnc2c1ncn2C1OC(CNC=O)C(O)C1O", "note": "(stereo unspecified)", "melting point": "212 to 213"}, {"smiles": "CC1CCc2c(N3CCC(O)CC3)ccc3c(=O)c(C(=O)O)cn1c23", "note": "(stereo unspecified)", "melting point": "238 to 240"}, {"smiles": "CC(=O)Nc1cccc(-c2nc3ncccc3o2)c1", "melting point": 202}, {"smiles": "C[C@H](O)[C@H](CO)N(Cc1ccc(C#N)cc1)S(=O)(=O)c1ccc(Cl)cc1", "melting point": "124 to 126"}, {"smiles": "CCOC(=O)C(Cc1ccc(S)cc1)(NC(C)=O)C(=O)OCC", "melting point": "125 to 128"}, {"smiles": "CCCCCCCCCCCCCCCCCCNC(=O)OCC(CN)NC(=O)OC", "note": "(stereo unspecified)", "melting point": "128 to 129"}, {"smiles": "COc1ccc2c(c1)C(=O)N(c1ccc3c(c1)N(C)CCN3C)C2", "melting point": "137 to 142"}, {"smiles": "Cc1cc([N+](=O)[O-])c2[nH]cc(CO)c(=O)c2c1", "melting point": "> 240"}, {"smiles": "CCCc1c(OCc2cc(Br)c(C(=O)O)cc2OC)ccc(C(C)=O)c1O", "melting point": "237 to 238"}, {"smiles": "COC(=O)c1cc2cc(OC)c(OC)cc2cn1", "melting point": 215}, {"smiles": "Cc1c(C(F)(F)F)cnn(-c2cc(OCC3CC3)c(Cl)cc2F)c1=O", "melting point": 82.3}, {"smiles": "CCn1ccc2nc(N3CCN(Cc4ccccc4)CC3)ncc2c1=O", "melting point": "116 to 118"}, {"smiles": "CC1(C)C=C(c2ccccn2)c2cc(C#N)ccc2O1", "melting point": "106 to 108"}, {"smiles": "CCC(=CC(CNC(=O)Cc1cccnc1)=NO)C(C)[N+](=O)[O-]", "note": "(stereo unspecified)", "melting point": "123 to 125"}, {"smiles": "Cc1c(NC(=O)c2ccc(OC[C@@H]3CCCO3)cc2)ccc2c1cc(CNC1CCCC1)n2C", "melting point": 189}, {"smiles": "CCCc1c2c(cc3c(=O)cc(C(=O)OCC)oc13)C(O)C(C(=O)OCC)(C(=O)OCC)O2", "note": "(stereo unspecified)", "melting point": "131 to 133"}, {"smiles": "CN(C)C(=O)C=Cc1ccc(C=CC(=O)N(C)C)cc1", "melting point": 247}, {"smiles": "Cc1cccc(C)c1-n1cc(C#N)c(=O)[nH]c1=O", "melting point": "267 to 269"}, {"smiles": "Cc1cc(Cl)cc(C(=O)NC2(C)CC2)c1NC(=O)c1cc(Br)nn1-c1ncccc1Cl", "melting point": "> 250"}, {"smiles": "CCOc1ccc(C23CC2CN(C=O)C3)cc1", "note": "(stereo unspecified)", "melting point": "48 to 51"}, {"smiles": "Cc1ccc2c(c1)Sc1ccc(F)cc1C(N1CCN(CCN3CCOC3=O)CC1)C2", "note": "(stereo unspecified)", "melting point": "147 to 149"}, {"smiles": "O=C(O)c1cnc2n(c1=O)CCCCC2", "melting point": "117 to 119"}, {"smiles": "CC1(C)CC(=O)C2C3CCCOC3C2(C)C1", "note": "(stereo unspecified)", "melting point": "111 to 112"}, {"smiles": "Cc1c(-c2cccc(C(F)(F)F)c2)oc2c(-c3ccc(F)cc3)c(-c3ccc(S(C)(=O)=O)cc3)nn12", "melting point": "194 to 195"}, {"smiles": "CN1CCC(c2c[nH]c3ccc(C(=O)c4ccc5ccccc5c4)cc23)CC1", "melting point": 92}, {"smiles": "Cc1c(N2C(=O)C[C@H](O)[C@@H]2C)ccc(C#N)c1Cl", "melting point": "172 to 173"}, {"smiles": "CCc1noc(C)c1-c1[nH]c2ccccc2c1C(O)CCN(C)C", "note": "(stereo unspecified)", "melting point": "166 to 169"}, {"smiles": "COc1cccc2c1CCn1cc(-c3ccccc3)nc1C2OC1CCN(C)CC1", "note": "(stereo unspecified)", "melting point": 73}, {"smiles": "CN(c1nc(-c2cc3ccccc3[nH]c2=O)cs1)S(=O)(=O)c1ccccc1", "melting point": "242 to 244"}, {"smiles": "CC[C@@]12C[C@@](C)(O)[C@](O)(c3ccccc3)C[C@H]1CCc1cc(OCC(=O)O)ccc12", "melting point": "190 to 191"}, {"smiles": "CCOC(=O)c1cnc2c3cc(OC)ccc3ccn2c1=O", "melting point": "184 to 186"}, {"smiles": "CCOC(=O)c1cc2ccc3c(c4ccccc4n3CC)c2n1C", "melting point": 116}, {"smiles": "CSc1ccc2cc(C(=O)c3ccccc3)cc(CCNC(C)=O)c2c1", "melting point": "126 to 128"}, {"smiles": "CC(=O)N1CC[C@H]2Cc3ccccc3[C@@H](c3ccccc3)N2CC1", "note": "(racemic)", "melting point": "145 to 147"}, {"smiles": "COc1cc2cc(COC(C)=O)c(COC(C)=O)c(C=O)c2cc1OC", "melting point": "154 to 155"}, {"smiles": "Oc1cc2ccccc2cc1OCCOc1ccccc1", "melting point": "141 to 142"}, {"smiles": "O=C(CCn1cnc2c(=O)[nH]cnc21)Nc1ccc(C(=O)O)cc1", "melting point": "319 to 321"}, {"smiles": "CCCCCCC(NC(=O)OCc1ccccc1)P(=O)(O)CC(=O)OC", "note": "(stereo unspecified)", "melting point": "260 to 268"}, {"smiles": "CN(C)C(=O)Nc1ccc(Oc2ccc3sncc3c2)c(C(F)(F)F)c1", "melting point": 188}, {"smiles": "CC(C)c1c(Sc2cccc(Cl)c2)nc(COC(N)=O)n1C", "melting point": "145 to 146"}, {"smiles": "CCOC(=O)C1CCN(c2ncc(NS(=O)(=O)c3ccccc3Br)c(NCc3ccc4c(c3)OCO4)n2)CC1", "melting point": "160 to 161"}, {"smiles": "COC(=O)c1nc(C)c(-c2ccncc2)s1", "melting point": "121 to 123"}, {"smiles": "CN1CCN(C(=O)c2cc3c4ccccc4n(C)c3s2)CC1", "melting point": "219 to 220"}, {"smiles": "COc1ccc2c(c1)C(N(CC(=O)O)C(=O)C(C)CSC(C)=O)CC2", "note": "(stereo unspecified)", "melting point": "106 to 110"}, {"smiles": "Cc1cccc(COc2ccc(C#N)cc2Cl)c1", "melting point": "73 to 75"}, {"smiles": "CON(c1ccc([N+](=O)[O-])cc1C#N)S(=O)(=O)c1ccc(C)cc1", "melting point": "148 to 150"}, {"smiles": "COC(=O)c1ccc(CN2CCN(C(=O)c3ccc(Cl)cc3)CC2)cc1", "melting point": "134 to 135"}, {"smiles": "COc1cc2ncc(C#N)c(Nc3cccc(CO)c3)c2cc1OC", "melting point": "250 to 255"}, {"smiles": "CCc1ccc(-c2ccc(C(=O)Nc3ccc4cc(CN5CCCC5)cnc4c3C)c(F)c2)cc1", "melting point": "178 to 179"}, {"smiles": "CCCc1nccn1C(C)COCC1=C(C(=O)OCC)C(c2ccccc2Cl)C2=C(CCCC2=O)N1", "note": "(stereo unspecified)", "melting point": "127 to 131"}, {"smiles": "CC(C)C(O)(C#C[Si](C)(C)C)c1cncnc1", "note": "(stereo unspecified)", "melting point": 117}, {"smiles": "C[Si](C)(CCSCCNC(=O)n1cc(F)c(=O)[nH]c1=O)c1ccccc1", "melting point": "90 to 91"}, {"smiles": "CS(=O)(=O)NC(=O)CCCCCCCCCCCNC(=O)NC12CC3CC(CC(C3)C1)C2", "melting point": 103}, {"smiles": "O=C(Cn1cccc(O)c1=O)NCCCCCCNC(=O)Cn1cccc(O)c1=O", "melting point": "240 to 242"}, {"smiles": "COc1cc(C2CCN(C3COC3)CC2)ccc1Nc1ncc2ccc(-c3ccccc3OC)n2n1", "melting point": "78 to 85"}, {"smiles": "FC(F)(F)c1cccc(CSc2nnc(-c3ccc4[nH]ncc4c3)o2)c1", "melting point": "159 to 160"}, {"smiles": "NC(=O)C(Nc1ccc(Cl)cc1)c1c(Cl)ccc(N)c1Cl", "note": "(stereo unspecified)", "melting point": 232}, {"smiles": "CCCCc1nc2c(N)nc3ccccc3c2n1CCCCNC(=O)c1ccccc1", "melting point": "174 to 175"}, {"smiles": "O=C(Cl)C(Oc1cccc(C(F)(F)F)c1)c1ccc(Cl)cc1", "note": "(stereo unspecified)", "melting point": "96 to 98"}, {"smiles": "CCCCC(=N)NC(=O)Nc1ccc(N)cc1", "melting point": "102 to 103"}, {"smiles": "CC(C)(C)C(=O)OCOC(=O)c1c2n(c3cc4c(cc3c1=O)OCO4)CCS2", "melting point": "229 to 230"}, {"smiles": "FC(F)(F)c1cccc2c(-c3ccccc3)c(-c3ccccc3)cnc12", "melting point": "181 to 183"}, {"smiles": "N#Cc1cc2c(cc1F)S(=O)(=O)N=CN2C1CC1", "melting point": "205 to 207"}, {"smiles": "CCOC(=O)c1c(CCl)nc2ccc(Cl)cc2c1-c1ccc(Cl)cc1", "melting point": "140 to 141"}, {"smiles": "Cc1c(C#N)oc2c(-c3ccc(F)cc3)c(-c3ccc(S(C)(=O)=O)cc3)nn12", "melting point": "236 to 238"}, {"smiles": "CC(O)c1cccc([N+](=O)[O-])c1Cl", "note": "(stereo unspecified)", "melting point": "62 to 64"}, {"smiles": "Cc1nn(C)c2nc(-c3ccccc3)cc(N(C)C)c12", "melting point": "90 to 91"}, {"smiles": "CSC(=C[N+](=O)[O-])NCCSCc1nccs1", "melting point": "63 to 64"}, {"smiles": "c1ccc(-c2nnc(Nc3ccc4c(c3)ncn4-c3ccccc3)c3ccccc23)cc1", "melting point": "227 to 229"}, {"smiles": "CCCCCCCCCCCCCCCCCCOc1ccccc1CC(=O)CO", "melting point": "59 to 60"}, {"smiles": "CC(C)OC(=O)C=CC(=O)NC(N)=O", "melting point": "113 to 114"}, {"smiles": "COc1cc(N2CCN([C@H](C)c3ccc(OC)c(OC)c3)CC2)ccc1Cl", "melting point": "172 to 176"}, {"smiles": "O=C(O)C(Cc1ccc2ccccc2c1)NC(=O)C(CS)C(F)(F)F", "note": "(stereo unspecified)", "melting point": "165 to 167"}, {"smiles": "CCOC(=O)c1c2n(c3ccc(F)cc3c1=O)CCS2", "melting point": "225 to 226"}, {"smiles": "O=C1CCC2=C(CCc3cc(Cl)ccc32)N1", "melting point": "228 to 230"}, {"smiles": "Cc1c(C#N)ccc2nc(N)nc(N)c12", "melting point": "> 270"}, {"smiles": "Cn1cc(C2=C(c3cn(C4CCN(CC(F)(F)C(F)(F)C(F)(F)F)CC4)c4ccccc34)C(=O)NC2=O)c2ccccc21", "melting point": "231 to 234"}, {"smiles": "O=c1c(CCCc2ccoc2)cc2cccnc2n1-c1cccc([N+](=O)[O-])c1", "melting point": "185 to 186"}, {"smiles": "N#CCCNC(=O)c1nn(C2CCCCO2)cc1NC(=O)c1cc(Cl)ccn1", "note": "(stereo unspecified)", "melting point": "218 to 219"}, {"smiles": "COC(=O)C=CC(=CN(C)C)C(=O)OC", "melting point": 62}, {"smiles": "CCc1nn2c(-c3cccc(OC)c3)ccnc2c1C#N", "melting point": "118 to 119"}, {"smiles": "CC1=C(C(=O)CS(=O)(=O)NC(C)C)C(c2cccc([N+](=O)[O-])c2)C(C(=O)OCCO)=C(C)N1", "note": "(stereo unspecified)", "melting point": "185 to 188"}, {"smiles": "CS(=O)(=O)c1ccc(-c2nnsc2-c2ccccc2)cc1", "melting point": "154 to 155"}, {"smiles": "CCCCCCCCC#CCC#CCC#CCS(=O)(=O)CC(=O)OC", "melting point": 69}, {"smiles": "CCON=C(CC)C1=C(O)CC(c2ccc(NC(=O)OC)cc2)CC1=O", "note": "(stereo unspecified)", "melting point": "160 to 161"}, {"smiles": "Cc1nc(-c2ccc(OCc3ccncc3)cc2)no1", "melting point": "132 to 133"}, {"smiles": "O=C(O)c1ccc(NC(=O)c2ccccc2-c2ccccc2)cc1Cl", "melting point": "217 to 219"}, {"smiles": "CCCCCCCCCCn1c(=S)nc2cc(Cl)ccn2c1=S", "melting point": "153 to 155"}, {"smiles": "CC#Cc1ccc(-c2ccc(-c3ccc(CCCCC)c(F)c3F)cc2)cc1", "melting point": 127}]}]}
